Experimental findings from PubChem BioAssay AID330 (DTP/NCI, 2004) are described below.

Where “and” joins values, the source holds several entries; their conditions need not be identical. Equal entries are not always repeated. Inconclusive results and toxic doses are left out.

The subject of the experiment is P388 leukemia ip, CD2F1 mice, survival T/C. In words: NCI In Vivo Anticancer Drug Screen. Data for tumor model P388 Leukemia (intraperitoneal) in CD2F1 (CDF1) mice. The note with it: endpoint: median survival time, higher = longer survival. The method, boiled down:
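Mice carrying the transplanted tumor received test compound or vehicle. Survival was recorded in each group, and the value is the treated-group measurement divided by that of the vehicle-treated control group.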

[1] abbreviates: dose: 50.0 mg/kg/injection, schedule: Q04DX003 (ip), vehicle: Klucel (hydroxypropylcellulose) (HPC).
Setting [2] is: dose: 100.0 mg/kg/injection, schedule: Q04DX003 (ip), vehicle: Klucel (hydroxypropylcellulose) (HPC).
Setting [3] is: dose: 60.0 mg/kg/injection, schedule: Q01DX005 (ip), vehicle: saline with Tween-80.
Where [4] appears, read: dose: 120.0 mg/kg/injection, schedule: Q01DX005 (ip), vehicle: saline with Tween-80.
Where [5] appears, read: dose: 240.0 mg/kg/injection, schedule: Q01DX005 (ip), vehicle: saline with Tween-80.
Setting [6] is: dose: 50.0 mg/kg/injection, schedule: Q01DX009 (ip), vehicle: saline with Tween-80.
Setting [7] is: dose: 100.0 mg/kg/injection, schedule: Q01DX009 (ip), vehicle: saline with Tween-80.
[8] abbreviates: dose: 50.0 mg/kg/injection, schedule: Q01DX005 (ip), vehicle: saline with Tween-80.
Where [9] appears, read: dose: 100.0 mg/kg/injection, schedule: Q01DX005 (ip), vehicle: saline with Tween-80.
[10] abbreviates: dose: 200.0 mg/kg/injection, schedule: Q01DX005 (ip), vehicle: saline with Tween-80.
Setting [11] is: dose: 100.0 mg/kg/injection, schedule: Q04DX003 (ip), vehicle: saline with Tween-80.
Setting [12] is: dose: 50.0 mg/kg/injection, schedule: Q01DX009 (ip), vehicle: Klucel (hydroxypropylcellulose) (HPC).
Setting [13] is: dose: 100.0 mg/kg/injection, schedule: Q01DX009 (ip), vehicle: Klucel (hydroxypropylcellulose) (HPC).
Where [14] appears, read: dose: 200.0 mg/kg/injection, schedule: Q01DX009 (ip), vehicle: Klucel (hydroxypropylcellulose) (HPC).
The mark [15] stands for this setting: dose: 200.0 mg/kg/injection, schedule: Q04DX003 (ip), vehicle: saline with Tween-80.
Setting [16] is: dose: 200.0 mg/kg/injection, schedule: Q01DX009 (ip), vehicle: saline with Tween-80.
[17] abbreviates: dose: 50.0 mg/kg/injection, schedule: Q01DX009 (ip), vehicle: saline.
The mark [18] stands for this setting: dose: 400.0 mg/kg/injection, schedule: Q04DX003 (ip), vehicle: saline with Tween-80.

Take `CC(C)CC(=O)CC(=O)C(C)(C)C.CC(C)CC(=O)CC(=O)C(C)(C)C.[Cu]`: the T/C is 100 % of control (dose: 25.0 mg/kg/injection, schedule: Q04DX003 (ip), vehicle: Klucel (hydroxypropylcellulose) (HPC)); 101 % of control under setting [1]; 98 % of control and 106 % of control under setting [2].
Regarding `COC(=O)C1=C(C)OC2OCCC12` (centres undefined), the T/C was 110 % of control under setting [3], 101 % of control under setting [4] and 102 % of control under setting [5].
On to `CCCCN(CCCC)CC1CC(C(C)(C)C)CCC1O` (centres undefined), for which the T/C by setting is: (dose: 50.0 mg/kg/injection, schedule: Q01DX005 (ip), vehicle: Klucel (hydroxypropylcellulose) (HPC)) 91 % of control; (dose: 100.0 mg/kg/injection, schedule: Q01DX005 (ip), vehicle: Klucel (hydroxypropylcellulose) (HPC)) 91 % of control.
On to `NC(=S)c1cccc(C=O)n1`, for which the T/C is 99 % of control (dose: 25.0 mg/kg/injection, schedule: Q01DX009 (ip), vehicle: saline with Tween-80); 99 % of control under setting [6]; 110 % of control under setting [1]; 97 % of control under setting [7]; 112 % of control under setting [2]; 114 % of control (dose: 200.0 mg/kg/injection, schedule: Q04DX003 (ip), vehicle: Klucel (hydroxypropylcellulose) (HPC)).
Regarding `O=C1OCCOCCOCCOC(=O)c2ccccc2SSc2ccccc21`, the T/C is 90 % of control (dose: 100.0 mg/kg/injection, schedule: Q01DX001 (ip), vehicle: saline with Tween-80) and 97 % of control (dose: 200.0 mg/kg/injection, schedule: Q01DX001 (ip), vehicle: saline with Tween-80).
As to `CC(=O)OC1COC2OC1C(OC(C)=O)C2OC(C)=O` (centres undefined), the T/C was 101 % of control under setting [8], 104 % of control under setting [9] and 101 % of control under setting [10].
For the compound `CC(=O)[O][Hg][c]1c(N)c(Cl)cc(C)c1F`, the T/C was 91 % of control (dose: 3.12 mg/kg/injection, schedule: Q01DX009 (ip), vehicle: Klucel (hydroxypropylcellulose) (HPC)) and 86 % of control (dose: 6.25 mg/kg/injection, schedule: Q01DX009 (ip), vehicle: Klucel (hydroxypropylcellulose) (HPC)).
As for `O=C(CC(O)(C(F)(F)F)C(F)(F)F)c1cccs1`, the T/C (dose: 50.0 mg/kg/injection, schedule: Q04DX003 (ip), vehicle: saline with Tween-80) was 116 % of control and the T/C under setting [11] was 100 % of control.
As to `Cc1c(N2CCCC2)cc2c(c1-n1cccc1)C(C)(C)CC2(C)C`, the T/C reads like this: under setting [12], 102 % of control; under setting [13], 96 % of control; under setting [14], 96 % of control.
Take `O=c1[nH]nc(SCc2ccccc2)c2nncn12`: the T/C is, setting by setting: under setting [8], 97 % of control; under setting [9], 92 % of control; under setting [10], 95 % of control.
With `CCCN(CCC)CCSC(=S)NCCOC`, the T/C reads like this: under setting [11], 100 % of control; under setting [15], 100 % of control.
As to `Cc1ccc(S(=O)(=O)N=S(CCO)CCO)cc1`, the T/C was 106 % of control under setting [12]; 110 % of control under setting [13]; 108 % of control under setting [14]; 107 % of control (dose: 400.0 mg/kg/injection, schedule: Q01DX009 (ip), vehicle: Klucel (hydroxypropylcellulose) (HPC)).
Take `O=[N+]([O-])c1ccc(N=Nc2ccc(O)cc2O)cc1`: the T/C was 100 % of control (dose: 100.0 mg/kg/injection, schedule: Q04DX003 (ip), vehicle: saline); 114 % of control (dose: 200.0 mg/kg/injection, schedule: Q04DX003 (ip), vehicle: saline); 115 % of control (dose: 400.0 mg/kg/injection, schedule: Q04DX003 (ip), vehicle: saline).
Take `CC1CCCC/C1=N\N(C)C` (centres undefined): the T/C is, setting by setting: under setting [3], 100 % of control; under setting [4], 94 % of control.
For the compound `CCOC(=O)c1cc(NC(C)=O)cn1C`, the T/C was 102 % of control under setting [6], 104 % of control under setting [7] and 103 % of control under setting [16].
In the case of `COC(=O)C1(CC(=O)CC(=O)CC2(C(=O)OC)NC(=S)NC(=O)C2C#N)NC(=S)NC(=O)C1C#N` (centres undefined), the T/C is, setting by setting: under setting [3], 106 % of control; under setting [4], 100 % of control; under setting [5], 100 % of control.
Regarding `CCOC(=O)C(=CNc1cc(C)c2[nH]c3ccc(Cl)cc3c2c1C)C(=O)OCC`, the T/C under setting [3] was 92 % of control; the T/C under setting [4] was 93 % of control; the T/C under setting [5] is 86 % of control and 94 % of control.
As to `CC(C)=CCCC(C)=C(C#N)C#N`, the T/C under setting [11] was 100 % of control.
Consider `CCCCN(C(=O)N(CC)CC)[Si](C)(C)C`, for which the T/C was 107 % of control under setting [12], 100 % of control under setting [13] and 107 % of control under setting [14].
Consider `O=C1NC(=O)N(c2ccc([N+](=O)[O-])cc2)C1=O`, for which the T/C is 86 % of control under setting [12]; 89 % of control under setting [13]; 86 % of control (2×) and 93 % of control under setting [14].
As to `CCCCCCCCCCCCCCC[N+]1([O-])CCCCC1`, the T/C runs as follows: (dose: 12.5 mg/kg/injection, schedule: Q01DX009 (ip), vehicle: saline) 101 % of control; (dose: 25.0 mg/kg/injection, schedule: Q01DX009 (ip), vehicle: saline) 95 % of control; under setting [17], 99 % of control and 101 % of control.
With `CN(C)Cc1c(N=Nc2cccc3ccccc23)[nH]c2ccccc12`, the T/C is 106 % of control under setting [12], 101 % of control under setting [13] and 105 % of control under setting [14].
For `CCOC(=O)c1ccc(NC(=S)NC(=O)c2ccco2)o1`, the T/C was 92 % of control under setting [6], 100 % of control under setting [7] and 92 % of control under setting [16].
As to `C=CC(C)(CCC=C(C)C)ON(C)C` (centres undefined), the T/C (dose: 100.0 mg/kg/injection, schedule: Q04DX002 (ip), vehicle: saline with Tween-80) is 100 % of control.
Take `Cc1ccc(C(=O)c2ccc[n+](C)c2)cc1`: the T/C is 100 % of control (dose: 50.0 mg/kg/injection, schedule: Q01DX005 (ip), vehicle: saline) and 101 % of control (dose: 100.0 mg/kg/injection, schedule: Q01DX005 (ip), vehicle: saline).
For `CC1C=CC(C)N(c2nnnn2C)N1c1nnnn1C` (centres undefined), the T/C under setting [11] was 116 % of control, the T/C under setting [15] is 106 % of control and the T/C under setting [18] was 100 % of control.
Consider `O=c1c2ccccc2n(-c2ccccc2)c2ccc(Cl)cc12`, for which the T/C was 86 % of control under setting [8] and 90 % of control under setting [9].
Take `CCSC/C(=N\Nc1ccc([N+](=O)[O-])cc1[N+](=O)[O-])c1ccccc1`: the T/C by setting is: under setting [11], 100 % of control; under setting [15], 95 % of control; under setting [18], 90 % of control.
Regarding `NCCC(=O)NC(Cc1cnc[nH]1)C(=O)O` (centres undefined), the T/C under setting [17] was 104 % of control; the T/C (dose: 100.0 mg/kg/injection, schedule: Q01DX009 (ip), vehicle: saline) was 104 % of control; the T/C (dose: 200.0 mg/kg/injection, schedule: Q01DX009 (ip), vehicle: saline) is 99 % of control; the T/C (dose: 400.0 mg/kg/injection, schedule: Q01DX009 (ip), vehicle: saline) is 98 % of control.
Regarding `CC(=O)OCCN1c2ccccc2Sc2cnccc21`, the T/C was 100 % of control under setting [7]; 100 % of control under setting [16]; 95 % of control (dose: 400.0 mg/kg/injection, schedule: Q01DX009 (ip), vehicle: saline with Tween-80).
On to `CNc1ccc(CN2CCCCC2)cc1C`, for which the T/C was 100 % of control and 92 % of control (dose: 0.93 mg/kg/injection, schedule: Q01DX005 (ip), vehicle: Klucel (hydroxypropylcellulose) (HPC)); 100 % of control and 97 % of control (dose: 1.87 mg/kg/injection, schedule: Q01DX005 (ip), vehicle: Klucel (hydroxypropylcellulose) (HPC)); 99 % of control and 95 % of control and 96 % of control (dose: 3.75 mg/kg/injection, schedule: Q01DX005 (ip), vehicle: Klucel (hydroxypropylcellulose) (HPC)).
Regarding `CSC(=S)n1nc(-c2ccccc2)c(N=Nc2ccc(Br)cc2)c1-c1ccccc1`, the T/C is, setting by setting: (dose: 100.0 mg/kg/injection, schedule: Q04DX002 (ip), vehicle: Klucel (hydroxypropylcellulose) (HPC)) 100 % of control; (dose: 200.0 mg/kg/injection, schedule: Q04DX002 (ip), vehicle: Klucel (hydroxypropylcellulose) (HPC)) 97 % of control; (dose: 400.0 mg/kg/injection, schedule: Q04DX002 (ip), vehicle: Klucel (hydroxypropylcellulose) (HPC)) 101 % of control.
